Source: ChEMBL document CHEMBL1201862, “PubChem BioAssay data set” (2004)
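Exposure lasted 48 hours, with cells grown in 96-well plates and compounds tested at five concentrations. Here, GI50 denotes the concentration required for 50% inhibition of growth.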 Activity calls are given as the source filed them. No stated cut-off is given here; in the data, active = GI50 up to about 1.1 µM and inactive = higher.

Legend:
Test in all cases: DTP human tumour cell line panel, 48 h
TK-10 = tested on: TK-10
NCI-H226 = tested on: NCI-H226
MDA-N = tested on: MDA-N
EKVX = tested on: EKVX
OVCAR-8 = tested on: OVCAR-8
SNB-19 = tested on: SNB-19
HOP-62 = tested on: HOP-62
HL-60 = tested on: HL-60
SK-MEL-5 = tested on: SK-MEL-5
KM12 = tested on: KM12
PC-3 = tested on: PC-3
SN12C = tested on: SN12C
IGROV-1 = tested on: IGROV-1
SK-OV-3 = tested on: SK-OV-3
NCI-H522 = tested on: NCI-H522
SF-539 = tested on: SF-539
MDA-MB-435 = tested on: MDA-MB-435
DU-145 = tested on: DU-145
OVCAR-3 = tested on: OVCAR-3
LOX IMVI = tested on: LOX IMVI

Measured: GI50

Cc1ccc(S(=O)(=O)n2cnc(CC(NC(=O)C3CCC(=O)N3C(=O)OCc3ccccc3)C(=O)N3CCCC3C(=O)NN)c2)cc1 (centres undefined)
inactive: TK-10 > 100 µM | NCI-H226 24.8 µM | MDA-N > 100 µM | EKVX > 100 µM | OVCAR-8 > 100 µM | SNB-19 48.8 µM | HOP-62 > 100 µM | HL-60 > 100 µM | SK-MEL-5 > 100 µM | KM12 > 100 µM | PC-3 > 100 µM | SN12C > 100 µM | IGROV-1 > 100 µM

CCOC(=O)C1=C(C)OC2(O)C=CC(O)=C3C(=O)N(c4ccccc4)C(=O)C312 (centres undefined)
inactive: TK-10 37.4 µM | SK-OV-3 90.8 µM | NCI-H522 18.5 µM | SF-539 29.1 µM | NCI-H226 34.2 µM | MDA-MB-435 37.8 µM | DU-145 36.7 µM | EKVX 54 µM | OVCAR-8 52 µM | SNB-19 22.8 µM | HOP-62 53.5 µM | HL-60 29.4 µM | OVCAR-3 61.9 µM | KM12 38.6 µM | PC-3 35.3 µM | SN12C 40.7 µM | IGROV-1 29 µM | LOX IMVI 21.8 µM

COc1cc([C@@H]2c3cc4c(cc3[C@@H](c3c(O)cc(O)c5c3O[C@H](c3ccc(O)c(O)c3)[C@@H](O)C5)[C@H]3COC(=O)[C@H]23)OCO4)cc(OC)c1OC
inactive: TK-10 1.79 µM | SK-OV-3 1.83 µM | NCI-H522 14.1 µM | SF-539 17.6 µM | MDA-MB-435 1.75 µM | DU-145 1.73 µM | EKVX 50.1 µM | OVCAR-8 44.4 µM | SNB-19 38.4 µM | HOP-62 1.88 µM | HL-60 38.8 µM | SK-MEL-5 17 µM | OVCAR-3 1.64 µM | KM12 1.76 µM | PC-3 1.75 µM | SN12C 32.2 µM | IGROV-1 44.6 µM | LOX IMVI 25.6 µM

O=C(O)CN1CCN2CCOCCN(CC1)CCN(CC(=O)O)CC2
inactive: TK-10 > 100 µM | SK-OV-3 > 100 µM | NCI-H522 > 100 µM | SF-539 > 100 µM | NCI-H226 > 100 µM | MDA-MB-435 > 100 µM | DU-145 > 100 µM | EKVX > 100 µM | OVCAR-8 > 100 µM | SNB-19 > 100 µM | HOP-62 > 100 µM | HL-60 > 53.3 µM | SK-MEL-5 > 100 µM | OVCAR-3 > 100 µM | KM12 > 100 µM | PC-3 > 100 µM | SN12C > 100 µM | IGROV-1 > 100 µM | LOX IMVI > 100 µM

CCSc1nc(=S)n(-c2ccccc2)c(C)c1C(C)=O
inactive: TK-10 > 100 µM | SK-OV-3 > 100 µM | NCI-H522 > 100 µM | SF-539 > 100 µM | NCI-H226 > 100 µM | MDA-MB-435 > 100 µM | DU-145 > 100 µM | EKVX > 100 µM | OVCAR-8 > 100 µM | SNB-19 > 94.6 µM | HOP-62 > 100 µM | HL-60 > 100 µM | SK-MEL-5 > 100 µM | OVCAR-3 > 100 µM | KM12 > 100 µM | PC-3 > 100 µM | SN12C > 100 µM | IGROV-1 > 100 µM | LOX IMVI > 100 µM

CC(=O)/C(=N\O)C(=O)Nc1ccc(Cl)cc1Cl
inactive: TK-10 > 100 µM | SK-OV-3 > 100 µM | NCI-H522 97.9 µM | SF-539 > 100 µM | NCI-H226 > 100 µM | EKVX > 100 µM | OVCAR-8 > 100 µM | SNB-19 > 100 µM | HOP-62 > 100 µM | HL-60 > 100 µM | SK-MEL-5 > 100 µM | OVCAR-3 > 100 µM | KM12 > 100 µM | SN12C > 100 µM | IGROV-1 > 100 µM | LOX IMVI > 100 µM

Cn1/c(=N\c2ccc(Cl)cc2)sc2ccccc21
inactive: TK-10 43 µM | SK-OV-3 > 100 µM | NCI-H522 4.98 µM | SF-539 85.1 µM | NCI-H226 46 µM | MDA-MB-435 42.1 µM | DU-145 26.6 µM | EKVX 21.1 µM | OVCAR-8 38.5 µM | SNB-19 > 100 µM | HOP-62 71.3 µM | HL-60 44.9 µM | SK-MEL-5 27.7 µM | KM12 21.9 µM | PC-3 37 µM | SN12C 75.3 µM | IGROV-1 55.3 µM | LOX IMVI 34.7 µM

COc1ccc2c(c1)CC[C@@H]1[C@@H]2CC[C@]2(C)C(=O)/C(=C/c3ccc(OC)c(OC)c3)C[C@@H]12
inactive: TK-10 > 100 µM | SK-OV-3 > 100 µM | SF-539 > 100 µM | MDA-MB-435 > 100 µM | DU-145 > 100 µM | EKVX > 100 µM | SNB-19 > 100 µM | HOP-62 > 100 µM | HL-60 > 100 µM | SK-MEL-5 > 100 µM | OVCAR-3 > 100 µM | KM12 > 100 µM | PC-3 > 100 µM

S=C(NN=C1NCCCN1)Nc1ccccc1
inactive: TK-10 > 100 µM | SK-OV-3 > 100 µM | NCI-H522 60.4 µM | SF-539 > 100 µM | NCI-H226 > 100 µM | MDA-MB-435 > 100 µM | EKVX > 100 µM | OVCAR-8 > 100 µM | SNB-19 > 100 µM | HOP-62 > 100 µM | HL-60 52.8 µM | SK-MEL-5 > 100 µM | OVCAR-3 > 100 µM | KM12 > 100 µM | PC-3 > 100 µM | IGROV-1 > 100 µM | LOX IMVI > 100 µM

O=C(C(=C(I)I)c1ccccc1)c1ccccc1
inactive: TK-10 28.4 µM | SK-OV-3 59.6 µM | SF-539 24.8 µM | MDA-MB-435 31.1 µM | MDA-N 19.1 µM | EKVX 28.8 µM | OVCAR-8 37.2 µM | SNB-19 29.9 µM | HOP-62 19.2 µM | HL-60 13.2 µM | SK-MEL-5 16.8 µM | OVCAR-3 20.9 µM | PC-3 28.4 µM | SN12C 24 µM | IGROV-1 8.63 µM

CC(C)(Oc1ccc(Cl)cc1)C(=O)N(C(=O)N1CCC(c2ccccc2)CC1)c1ccccc1
inactive: TK-10 > 30.1 µM | SK-OV-3 99.8 µM | SF-539 > 100 µM | NCI-H226 > 61 µM | MDA-MB-435 > 100 µM | DU-145 > 100 µM | EKVX 11.1 µM | OVCAR-8 8.47 µM | SNB-19 > 100 µM | HOP-62 > 100 µM | HL-60 1.6 µM | SK-MEL-5 4.94 µM | OVCAR-3 > 73.5 µM | KM12 15.5 µM | PC-3 5.51 µM | SN12C 27.4 µM | IGROV-1 > 53.2 µM | LOX IMVI 22.9 µM
